According to patent US10688086B2, “Method for treating cancer with dihydropyridine calcium antagonist” (GERMARK BIOTECHNOLOGY CO., LTD, priority 2016, dated 2020):

Columns and labels:
[1] = system: patients having pancreatic cancer; test: NHIRD statistical analysis of death/survival with vs without Amlodipine, pancreatic cancer; type: in vivo, human
Hep3B cells [2] = test: Cell viability (WST-1 72 hrs; PI flow cytometry 48 hrs), Hep3B; type: cell-based
Protocol: Two liver cancer cell lines HepG2 and Hep3B were cultured. The medium used for the culture of the cells was DMEM medium containing 10% fetal bovine serum, 10,000 U/ml penicillin and 10,000 μg/ml streptomycin. The culture occurred in an environment at 37° C. with 5% CO2, and the medium was changed every 2-3 days during the culture. After the cells were cultured to about 70% confluence, they were treated with various concentrations of Amlodipine: 0, 1.5625, 3.125, 6.25, 12.5, 25, and 50 μM for various times: 48, and 72 hrs. After the experiment, the viability of each liver cancer cell line was observed and the cell viability and cell cycle were analyzed. The HepG2 and Hep3B cells treated with various concentrations of Amlodipine for 72 hrs were added to WST-1 reagent. After 330 minutes of reaction, the absorbance at a wavelength of 420-480 nm was measured. The HepG2 and Hep3B cells treated with various concentrations of Amlodipine for 48 hrs were scraped off with 0.05% Trypsin-EDTA, and then added to 2 mg/ml PI solution. The cell viability was analyzed by flow cytometry.

liver cancer cells Hep3B = test: Cell cycle analysis by flow cytometry, Hep3B; type: cell-based
Protocol: Two liver cancer cell lines HepG2 and Hep3B were cultured. The medium used for the culture of the cells was DMEM medium containing 10% fetal bovine serum, 10,000 U/ml penicillin and 10,000 μg/ml streptomycin. The culture occurred in an environment at 37° C. with 5% CO2, and the medium was changed every 2-3 days during the culture. After the cells were cultured to about 70% confluence, they were treated with various concentrations of Amlodipine: 0, 1.5625, 3.125, 6.25, 12.5, 25, and 50 μM for various times: 48, and 72 hrs. After the experiment, the viability of each liver cancer cell line was observed and the cell viability and cell cycle were analyzed. The cell cycle of each liver cancer cell line treated under different conditions was analyzed by flow cytometry. […] Still further, each liver cancer cell line was treated with Amlodipine at a concentration of 12.5 μM for 0, 12, 24, 36 and 48 hrs, and the cell cycle was analyzed by flow cytometry.

HepG2 cells [3] = test: Western blotting of apoptosis-related proteins, HepG2; type: cell-based; settings: various concentrations, 24 hours
Protocol: (§1) The expression of apoptosis-related genes in each liver cancer cell line treated with various concentrations of Amlodipine for 24 hours were detected by Western blotting.

HepG2 cells [4] = test: Cell invasion (Transwell, crystal violet), HepG2; type: cell-based; settings: 10 μM, 72 hrs
Protocol: (§2) The HepG2 and Hep3B cells were separately cultured in the insert of the Transwell plate, then added with 10 μM Amlodipine and cultured for 48 or 72 hrs. The cells on the inner surface of the insert were taken out, and the insert was placed in methanol and stained with a crystal violet solution. […] That is, Amlodipine is effective in slowing the progression of cancers, thereby achieving a therapeutic effect in the treatment of cancers.

Hep3B cells [5] = test: Western blotting of apoptosis-related proteins, Hep3B; type: cell-based; settings: various concentrations, 24 hours
Protocol: as §1

[6] = system: patients having bladder cancer; test: NHIRD statistical analysis of death/survival with vs without Amlodipine, bladder cancer; type: in vivo, human
[7] = system: patients having breast cancer; test: NHIRD statistical analysis of death/survival with vs without Amlodipine, breast cancer; type: in vivo, human
[8] = system: patients having lung cancer; test: NHIRD statistical analysis of death/survival with vs without Amlodipine, lung cancer; type: in vivo, human
[9] = system: patients having liver cancer; test: NHIRD statistical analysis of death/survival with vs without Amlodipine, liver cancer; type: in vivo, human
Hep3B cells [10] = test: Cell invasion (Transwell, crystal violet), Hep3B; type: cell-based; settings: 10 μM, 72 hrs
Protocol: as §2

[11] = system: patients having colorectal cancer; test: NHIRD statistical analysis of death/survival with vs without Amlodipine, colorectal cancer; type: in vivo, human
[12] = system: patients with gastric cancer; test: NHIRD statistical analysis of death/survival with vs without Amlodipine, gastric cancer; type: in vivo, human
Protocol: In this example, statistical analysis was performed on the statistics of the effects of Amlodipine in the treatment of cancers, using data from the National Health Insurance Research Database (NHIRD) covering detailed healthcare data for the population in Taiwan. Then, the diagnostic data at the time of admission in the database and the database of patients with registered major injuries were used, and statistical analysis was performed using data from patients with gastric cancer.
The dose of Amlodipine used in Example 1 was at least 120 mg/30 days. Therefore, in order to obtain the minimum effective dose, the survival rate of patients treated with Amlodipine for days in 90 days after cancer diagnosis was further statistically analyzed.

[13] = 24/30: Amlodipine at least 24 days within 30 days after cancer diagnosis
[14] = 48/60: Amlodipine at least 48 days within 60 days after cancer diagnosis
[15] = 72/90: Amlodipine at least 72 days within 90 days after cancer diagnosis
[16] = Amlodipine for 20 days within 90 days after diagnosis
[17] = 12.5 μM Amlodipine, treatment time 12 hr
[18] = 12.5 μM Amlodipine, treatment time 24 hr
[19] = 12.5 μM Amlodipine, treatment time 36 hr
[20] = 12.5 μM Amlodipine, treatment time 48 hr
[21] = day of treatment with Amlodipine 72/9

CCOC(=O)C1=C(COCCN)NC(C)=C(C(=O)OC)C1c1ccccc1Cl (centres unmarked) [Amlodipine]
Crude HR HRs (95% C.I.) [1, 13]: 0.62 (0.51-0.75)
Crude HR HRs (95% C.I.) [1, 14]: 0.63 (0.51-0.77)
Crude HR HRs (95% C.I.) [1, 15]: 0.71 (0.57-0.88)
Crude HR HRs (95% C.I.) [1, 16]: 0.77 (0.65-0.93)
Amlodipine concentration at which the best inhibitory effect on the growth of liver cancer cells is achieved (Hep3B cells [2]): greater than or equal to 12.5 μM
cell viability of liver cancer cells treated with Amlodipine (Hep3B cells [2]; 1.5625-50 μM, 48 and 72 hrs, FIGS. 10, 13-15): decreased
Proportion of cell distribution in cell cycle (%) M1: (liver cancer cells Hep3B; 1.5625 μM Amlodipine, 48 hrs): 5.34%
Proportion of cell distribution in cell cycle (%) M2: (liver cancer cells Hep3B; 1.5625 μM Amlodipine, 48 hrs): 74.88%
Proportion of cell distribution in cell cycle (%) M3: (liver cancer cells Hep3B; 1.5625 μM Amlodipine, 48 hrs): 7.06%
Proportion of cell distribution in cell cycle (%) M4: (liver cancer cells Hep3B; 1.5625 μM Amlodipine, 48 hrs): 12.82%
Proportion of cell distribution in cell cycle (%) M1: (liver cancer cells Hep3B; 3.125 μM Amlodipine, 48 hrs): 6.51%
Proportion of cell distribution in cell cycle (%) M2: (liver cancer cells Hep3B; 3.125 μM Amlodipine, 48 hrs): 73.83%
Proportion of cell distribution in cell cycle (%) M3: (liver cancer cells Hep3B; 3.125 μM Amlodipine, 48 hrs): 6.63%
Proportion of cell distribution in cell cycle (%) M4: (liver cancer cells Hep3B; 3.125 μM Amlodipine, 48 hrs): 13.17%
Proportion of cell distribution in cell cycle (%) M1: (liver cancer cells Hep3B; 6.25 μM Amlodipine, 48 hrs): 6.48%
Proportion of cell distribution in cell cycle (%) M2: (liver cancer cells Hep3B; 6.25 μM Amlodipine, 48 hrs): 72.91%
Proportion of cell distribution in cell cycle (%) M3: (liver cancer cells Hep3B; 6.25 μM Amlodipine, 48 hrs): 6.74%
Proportion of cell distribution in cell cycle (%) M4: (liver cancer cells Hep3B; 6.25 μM Amlodipine, 48 hrs): 13.93%
Proportion of cell distribution in cell cycle (%) M1: (liver cancer cells Hep3B; 12.5 μM Amlodipine, 48 hrs): 16.96%
Proportion of cell distribution in cell cycle (%) M2: (liver cancer cells Hep3B; 12.5 μM Amlodipine, 48 hrs): 67.77%
Proportion of cell distribution in cell cycle (%) M3: (liver cancer cells Hep3B; 12.5 μM Amlodipine, 48 hrs): 6.58%
Proportion of cell distribution in cell cycle (%) M4: (liver cancer cells Hep3B; 12.5 μM Amlodipine, 48 hrs): 8.83%
Proportion of cell distribution in cell cycle (%) M1: (liver cancer cells Hep3B; [17]): 24.89%
Proportion of cell distribution in cell cycle (%) M2: (liver cancer cells Hep3B; [17]): 62.89%
Proportion of cell distribution in cell cycle (%) M3: (liver cancer cells Hep3B; [17]): 4.22%
Proportion of cell distribution in cell cycle (%) M4: (liver cancer cells Hep3B; [17]): 8.08%
Proportion of cell distribution in cell cycle (%) M1: (liver cancer cells Hep3B; [18]): 30.77%
Proportion of cell distribution in cell cycle (%) M2: (liver cancer cells Hep3B; [18]): 56.25%
Proportion of cell distribution in cell cycle (%) M3: (liver cancer cells Hep3B; [18]): 5.46%
Proportion of cell distribution in cell cycle (%) M4: (liver cancer cells Hep3B; [18]): 7.55%
Proportion of cell distribution in cell cycle (%) M1: (liver cancer cells Hep3B; [19]): 39.90%
Proportion of cell distribution in cell cycle (%) M2: (liver cancer cells Hep3B; [19]): 47.73%
Proportion of cell distribution in cell cycle (%) M3: (liver cancer cells Hep3B; [19]): 5.03%
Proportion of cell distribution in cell cycle (%) M4: (liver cancer cells Hep3B; [19]): 7.47%
Proportion of cell distribution in cell cycle (%) M1: (liver cancer cells Hep3B; [20]): 56.61%
Proportion of cell distribution in cell cycle (%) M2: (liver cancer cells Hep3B; [20]): 29.59%
Proportion of cell distribution in cell cycle (%) M3: (liver cancer cells Hep3B; [20]): 7.08%
Proportion of cell distribution in cell cycle (%) M4: (liver cancer cells Hep3B; [20]): 6.82%
cell division (cell cycle, in words) (liver cancer cells Hep3B; 12.5 μM or more, 48 hrs): most cells were unable to undergo cell division
Proportion of cell distribution in cell cycle (%) M1: (liver cancer cells Hep3B; 25 μM Amlodipine, 48 hrs): 57.32%
Proportion of cell distribution in cell cycle (%) M2: (liver cancer cells Hep3B; 25 μM Amlodipine, 48 hrs): 28.75%
Proportion of cell distribution in cell cycle (%) M3: (liver cancer cells Hep3B; 25 μM Amlodipine, 48 hrs): 8.02%
Proportion of cell distribution in cell cycle (%) M4: (liver cancer cells Hep3B; 25 μM Amlodipine, 48 hrs): 6.10%
intracellular expression of apoptotic proteins (Western blotting) (HepG2 cells [3]): results in the intracellular expression of apoptotic proteins
cell invasion (crystal violet staining) (HepG2 cells [4]): lower
intracellular expression of apoptotic proteins (Western blotting) (Hep3B cells [5]): results in the intracellular expression of apoptotic proteins
Crude HR HRs (95% C.I.) [6, 13]: 0.54 (0.50-0.59)
Crude HR HRs (95% C.I.) [6, 14]: 0.55 (0.50-0.60)
Crude HR HRs (95% C.I.) [6, 15]: 0.55 (0.50-0.61)
Crude HR HRs (95% C.I.) [6, 16]: 0.82 (0.75-0.90)
Crude HR HRs (95% C.I.) [7, 13]: 0.54 (0.50-0.59)
Crude HR HRs (95% C.I.) [7, 14]: 0.53 (0.48-0.57)
Crude HR HRs (95% C.I.) [7, 15]: 0.50 (0.46-0.55)
Crude HR HRs (95% C.I.) [7, 16]: 0.91 (0.83-0.99)
Crude HR HRs (95% C.I.) [8, 13]: 0.66 (0.62-0.70)
Crude HR HRs (95% C.I.) [8, 14]: 0.62 (0.58-0.67)
Crude HR HRs (95% C.I.) [8, 16]: 0.85 (0.80-0.90)
Crude HR HRs (95% C.I.) [8, 21]: 0.62 (0.58-0.66)
Crude HR HRs (95% C.I.) [9, 13]: 0.55 (0.53-0.59)
Crude HR HRs (95% C.I.) [9, 14]: 0.54 (0.51-0.57)
Crude HR HRs (95% C.I.) [9, 15]: 0.55 (0.52-0.58)
Crude HR HRs (95% C.I.) [9, 16]: 0.73 (0.69-0.77)
fluorescence intensity (cell invasion) vs cells not treated with Amlodipine (Hep3B cells [10]): lower
Crude HR HRs (95% C.I.) [11, 13]: 0.46 (0.44-0.49)
Crude HR HRs (95% C.I.) [11, 14]: 0.44 (0.42-0.47)
Crude HR HRs (95% C.I.) [11, 16]: 0.76 (0.72-0.80)
Crude HR HRs (95% C.I.) [11, 21]: 0.44 (0.42-0.47)
Crude HR HRs (95% C.I.) [12, 13]: 0.43 (0.39-0.47)
Crude HR HRs (95% C.I.) [12, 14]: 0.43 (0.39-0.48)
Crude HR HRs (95% C.I.) [12, 15]: 0.42 (0.38-0.47)
Crude HR HRs (95% C.I.) [12, 16]: 0.73 (0.66-0.80)
